{"source": "paper PMC10535864", "about": "“Novel Aminopyrimidine-2,4-diones, 2-Thiopyrimidine-4-ones, and 6-Arylpteridines as Dual-Target Inhibitors of BRD4/PLK1: Design, Synthesis, Cytotoxicity, and Computational Studies” (Pharmaceuticals, 2023)", "type_in_all_cases": "cell-based", "key": {"[1]": {"tested_on": "MDA-MB-231 cells", "test": "Cell cycle analysis, propidium iodide flow cytometry", "details": "treated at IC50 concentration, 48 h", "excerpt": "(§1) The results are indicated as a dot plot graph with four quadrant images (Figure 5B). […] However, both compounds also raised the necrotic percent by 1.8- and 2.8-fold, respectively, compared to non-treated cells. Overall, these findings implied that compound 7 could exert anticancer activity by producing cell cycle arrest at the G2/M phase and inducing apoptosis.\n(§2) An Epics XL-MCL™ Flow Cytometer and Flowing software 2012 were used to count and analyze stained cells. The Supplementary file contains detailed descriptions of the flow cytometric analysis of cell-cycle distribution and cellular apoptosis. […]\n(§3) 1.3.Cell cycle and apoptosis screening […]\n(§4) investigated using an Ab-139418 propidium iodide flow cytometry kit and an Annexin-V assay and biparametric cytofluorimetric analysis, respectively, as instructed by the manufacturer. IC50s of both 7 and […]\nCytometer and Flowing software were used to count and analyze stained cells. The Supplementary file contains detailed descriptions of the flow cytometric analysis of cell-cycle distribution and cellular apoptosis.\n1.3.1. Cell cycle analysis […]\na six-well plate containing MDA-MB-231 breast cancer cells was seeded with 1 X 10^5 cells per well and then […]\nFollowing that, cells were gathered and fixed in ice-cold 70% ethanol at 4 °C for 12 hours. The cells were then rinsed with cold Phosphate Buffer Saline (PBS) and incubated for 30 minutes at 37°C in 0.5 mL of PBS after the ethanol was removed. Propidium iodide was used to stain the cells for 30 min while they were in the dark. DNA content was determined using a flow cytometer. […]"}, "[2]": {"tested_on": "caspase-3 gene in MDA-MB-231 cells", "test": "RT-PCR gene expression, caspase-3", "details": "48 h treatment, control = 1", "procedure": "(§5) As well, there was an apparent increase in caspase-3, showing 3.9-fold more expression than in control cells.\n(§6) Fluorometric analysis was used to gauge the level of these genes’ expression. The procedure for the used kit was carried out in accordance with the manufacturer’s instructions, which are detailed in the Supplementary file. […]\n(§7) […] at pH 7.4). The flow cytometer was then used to examine the cells […]\n(§8) 1.4.Estimation of apoptotic and anti-apoptotic gene markers […]\n(§9) such as Bax and caspase-3, as well as anti-apoptotic genes such as Bcl-2, was studied using the BIORAD iScriptTM One-Step RT-PCR kit with SYBR® Green. MDA-MB-231 cells were cultured before being treated for 48 hours […]\n(§10) Fluorometric analysis was used to gauge the level of these genes' expression. The procedure for the used kit was carried out in accordance with the manufacturer's instructions, which are detailed as follows:\n(§11) 1.4.1. RNA isolation and reverse transcription m RNA isolation iscarried out using an RNeasy extraction kit,up to 1 x 10^7 cells, depending on the cell line. Cells are disrupted in RNeasy Lysis Buffer (RLT buffer), homogenized, then ethanol is added to the lysate, creating conditions that promote selective binding of RNA to the RNeasy membrane. […]"}, "[3]": {"tested_on": "BAX gene in MDA-MB-231 cells", "test": "RT-PCR gene expression, BAX", "details": "48 h treatment, control = 1", "procedure": "as §5, §6, §7, §8, §9, §10, §11"}, "[4]": {"tested_on": "Bcl-2 gene in MDA-MB-231 cells", "test": "RT-PCR gene expression, Bcl-2", "details": "48 h treatment, control = 1", "procedure": "as §5, §6, §7, §8, §9, §10, §11"}, "[5]": {"tested_on": "MDA-MB-231 cells", "test": "Apoptosis screening, annexin V-FITC/PI flow cytometry", "details": "compared to non-treated control MDA-MB-231 cells", "excerpt": "as §1, §2, §3, §4\nCytometer and Flowing software were used to count and analyze stained cells. The Supplementary file contains detailed descriptions of the flow cytometric analysis of cell-cycle distribution and cellular apoptosis. […]\n1.3.2. Apoptosis screening […]\nplate received 1 X 105 conc. breast cancer (MDA-MB-231) cells that were then incubated for 24 hours. The cells […]\nwith PBS, and stained for 15 min at room temperature in the dark with annexin V-FITC and PI in binding buffer (10 […]\nµM HEPES, 140 µM NaCl, and 2.5 µM CaCl2 at pH 7.4). […]\nhigh-quality RNA iseluted in RNase-free water.\n1.4.2. Master mix preparation\nAll the following reagents were mixed together to give a totalvolume (50 μL). 2X SYBR® Green RT-PCR reaction mixture (25 μL), forward primer (10 μM) (1.5 μL), reverse primer (10 μM) (1.5 μL), nuclease-free H2O (11 μL), RNA template (1 pg to 100 ng totalRNA) (10 μL) and iScript reverse transcriptase for One-Step RT-PCR (1 μL).\n1.4.3. Amplification protocol\nIncubate complete reaction mixture in a real-time thermal detection system (Rotorgene) as follows: cDNA synthesis:\n10 min at 50 °C, iScript reverse transcriptase inactivation: 5 min at 95 °C, polymerase chain reaction (PCR) cycling and detection (30–45 cycles): 10 s at 95 °C and 30 s at 55 °C to 60 °C (data collection step) and melt curve analysis:\n1 min at95 °C and 1 min at55 °C and 10 s at55 °C (80 cycles, increasing each by 0.5 °C each cycle)."}}, "note": "Where “and” joins values, the source holds several entries; their conditions need not be identical. Identical values can stand only once."}
{"smiles": "Cn1c(SCC(=O)c2ccccc2)nc(=O)c(/N=C(/CBr)c2ccccc2)c1N", "note": "[Compound 7, (E)-6-Amino-5-((2-bromo-1-phenylethylidene)amino)-1-methyl-2-((2-oxo-2-phenylethyl)thio)pyrimidin-4(1H)-one]", "values": [{"measurement": "DNA content % at cell cycle phase %G2/M", "setting": "[1]; control 9.19%", "value": 22.36, "unit": "%"}, {"measurement": "DNA content % at cell cycle phase %S", "setting": "[1]; control 29.53%", "value": 28.02, "unit": "%"}, {"measurement": "DNA content % at cell cycle phase %G0/G1", "setting": "[1]; control 61.28%", "value": 49.62, "unit": "%"}, {"measurement": "Gene expression Caspase-3 (apoptotic gene)", "setting": "[2]", "value": "3.9 fold and 3.904 fold"}, {"measurement": "Gene expression BAX (apoptotic gene)", "setting": "[3]", "value": "7.3 fold and 7.325 fold"}, {"measurement": "Gene expression Bcl-2 (anti-apoptotic gene)", "setting": "[4]", "value": "0.30 fold and 0.301 fold"}, {"measurement": "increase in early apoptosis", "setting": "[5]", "value": 58.8, "unit": "fold"}, {"measurement": "increase in total apoptosis", "setting": "[5]", "value": 19.3, "unit": "fold"}, {"measurement": "rise of necrotic percent", "setting": "[5]", "value": 1.8, "unit": "fold"}]}
